Laboratory results reported in US11045465B2, “Methods and compositions to prevent addiction” (FLORIDA STATE UNIVERSITY RESEARCH FOUNDATION, INC., priority 2009, dated 2021).
Entries after “also recorded” stand apart in the source; their conditions may differ.

Legend:
[1] = system: mice; test: Locomotor activity measured during the CPP assay; type: in vivo; details: for MPH-induced increase in locomotor activity: naltrexone 1, 5 or 10 mg/kg 30 min prior to MPH 7.5 mg/kg
Procedure: In control groups, saline or naltrexone at each of the doses was administered alone (without MPH).

[2] = system: Adult C57BL/6 mice; test: Conditioned place preference (CPP); type: in vivo; details: for MPH-induced place preference / CPP score compared to the saline group: naltrexone 10 mg/kg (highest dose) prior to MPH 7.5 mg/kg; for place preference (CPP): naltrexone 1 or 10 mg/kg alone; for effect on high dose MPH-induced CPP (rewarding effects): naltrexone prior to MPH, naltrexone dose not stated
Procedure: Photobeams wired to a computer can record animal location (time spent in the chamber). The central chamber has a smooth floor with gray color. Each preference chamber is either white with a mesh floor or black with a bar floor. The CPP procedure included three phases. (1) The pre-conditioning phase was performed on day 1 (two sessions daily, AM and PM). In each preconditioning session, mice were initially placed in the central gray chamber for 2 min and then allowed free access to the white and black chambers for 20 min. The time spent in each chamber was recorded. […] (2) The conditioning phase was carried out on each of days 2 to 6 [two sessions daily, AM and PM one each for vehicle-paired (saline as vehicle) and drug-paired (cocaine or MPH as drugs) sessions]. In the vehicle-paired session mice were injected with saline (i.p.) and placed in the central gray chamber for 2 min (to isolate injection effect to the central chamber) and then confined to the vehicle-paired chamber for 30 min. In the drug-paired session, the mice were given the drug in the central chamber, retained there for 2 min and then confined for 30 min in the drug-paired chamber. […] The time spent in each chamber was recorded. The difference between time spent in the drug-paired chamber during the test phase and pre-conditioning phases was calculated as the CPP score.

[3] = target: T1, μ opioid receptor (MOPR) (Mus musculus, UniProt P42866); test: DAMGO concentration-dependent [35S]GTPγS binding in caudate-putamen and nucleus accumbens membrane preparations; type: biochemical, mice
T1 construct: The caudate-putamen and nucleus accumbens were microdissected and the tissue was homogenized; from tissue; host or cells: mouse brain: caudate-putamen and nucleus accumbens membrane preparations
T1 sequence (P42866 whole entry): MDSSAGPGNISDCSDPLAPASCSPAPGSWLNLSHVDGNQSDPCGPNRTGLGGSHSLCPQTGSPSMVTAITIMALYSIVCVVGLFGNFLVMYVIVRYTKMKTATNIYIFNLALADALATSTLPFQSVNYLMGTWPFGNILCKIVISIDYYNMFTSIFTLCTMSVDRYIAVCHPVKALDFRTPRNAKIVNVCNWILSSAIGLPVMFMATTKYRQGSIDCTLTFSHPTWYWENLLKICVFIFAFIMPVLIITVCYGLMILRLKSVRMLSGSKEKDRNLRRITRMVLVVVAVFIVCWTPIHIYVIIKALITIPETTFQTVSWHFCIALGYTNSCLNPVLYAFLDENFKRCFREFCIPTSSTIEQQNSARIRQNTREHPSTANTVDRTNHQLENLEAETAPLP
Procedure: (§1) MOPR activity was assayed by using [^35S]GTPγS binding on membrane preparations using a modification of the previously described method^23. The mice were sacrificed by cervical dislocation and the brain was dissected rapidly. The caudate-putamen and nucleus accumbens were microdissected and the tissue was homogenized using teflon pistol in Eppendorf tubes (10 strokes) in 300 μl of homogenization buffer containing 25 mM Tris/pH7.4, 5 mM EDTA and 0.1 mM PMSF and kept on ice. Homogenate was diluted to 2.5 ml using the homogenization buffer and centrifuged at ˜350,000 g for 30 min. After washing 3 times with 50 mM Tris-HCl/pH7.4, the pellets were re-suspended in 50 mM Tris-HCl/pH7.4 containing 0.32 M sucrose, passed through a 26.5 G needle for 3 times, frozen in dry ice/ethanol and stored in −80° C. until use. […] Bound and free [^35S]GTPγS were separated by filtration with GF/B filters under reduced pressure. Radioactivity on filters was determined by liquid scintillation counting. Nonspecific binding was subtracted from total stimulated and basal binding. […] MOPR activity was reported as % of baseline (unstimulated) activity: [Disintegrations per minute (DPM) with agonist stimulated binding−DPM of nonspecific binding)/(DPM basal (without agonist)−DPM nonspecific)×100. Protein content of membranes was determined by the BCA method of^24 with bovine serum albumin as the standard.

[4] = system: frontal cortical dopamine levels; details: cited from earlier work
[5] = system: healthy human volunteers; details: studies that evaluated detection/likeability (Kollins et al., 2001); cited from earlier work
[6] = target: T1, μ opioid receptor (MOPR); test: DAMGO-stimulated [35S]GTPγS binding (MOPR activity) in caudate-putamen and nucleus accumbens membranes of drug-treated mice from the CPP assay; type: in vivo; details: for MOPR activity (DAMGO-stimulated [35S]GTPγS binding) compared to saline: caudate-putamen and nucleus accumbens, 10 μM DAMGO
Procedure: as §1

[7] = cited from earlier work
[8] = system: rats; details: 0.5 mg/kg MPH, rats (Paine et al., 2007); cited from earlier work
[9] = system: KOPR; details: 2.5 mg/kg; s.c. (Xia et al., 2007); cited from earlier work
[10] = naltrexone 1, 5 or 10 mg/kg prior to MPH 7.5 mg/kg
[11] = 0.75 mg/kg dose (Balcioglu et al., 2009)
[12] = MPH 7.5 mg/kg vs cocaine 10 mg/kg

## O=C1CC[C@@]2(O)[C@H]3Cc4ccc(O)c5c4[C@@]2(CCN3CC2CC2)[C@H]1O5 [naltrexone]
[1]
  MPH-induced increase in locomotor activity: not affected
[1]; listed as Naltrexone
  MPH-induced increase in locomotor activity: did not block the MPH-induced increases in locomotor activity
[1]; naltrexone 1, 5 or 10 mg/kg alone
  locomotor activity: did not affect locomotor activity
[2]; 7.5 mg/kg MPH, preliminary findings
  naltrexone dose needed to block reinforcing properties of MPH: at least 5 mg/kg
[2]
  MPH-induced place preference / CPP score compared to the saline group: not significantly different from that for the saline group
  place preference (CPP): did not induce CPP
  effect on high dose MPH-induced CPP (rewarding effects): can significantly attenuate rewarding effects of MPH
[2]; listed as Naltrexone
  MPH-induced place preference / CPP score compared to the saline group: blocking it completely
  place preference (CPP): did not affect CPP
  effect on high dose MPH-induced CPP (rewarding effects): prevents MPH-induced CPP; also recorded: attenuates high dose MPH-induced place preference
[2]; naltrexone 1, 5 or 10 mg/kg administered prior to MPH 7.5 mg/kg
  time spent in the drug-paired chamber, PC vs Test sessions: significant difference between PC and Test sessions
[2]; [10]
  CPP score compared to MPH administered alone: significantly decreased the CPP score
  dose dependence of the decrease in the CPP score: dose-dependent
[2]; naltrexone 5 or 10 mg/kg 30 min prior to MPH 7.5 mg/kg
  MPH-induced CPP / CPP score compared to MPH administered alone: significantly lower; also recorded: blocks MPH-induced conditioned place preference (CPP)

## C[C@@H](NC(=O)[C@@H](N)Cc1ccc(O)cc1)C(=O)NCC(=O)N(C)[C@@H](Cc1ccccc1)C(=O)NCCO [DAMGO]
[3]
  concentration at which maximal [35S]GTPγS binding was reached: 10 µM
[3]; at 10 μM DAMGO
  maximal [35S]GTPγS binding: 1.75 fold of the basal level

## CCN1CCC[C@H]1CNC(=O)c1c(O)c(Cl)cc(Cl)c1OC [raclopride]
[2]; MPH 7.5 mg/kg + raclopride
  CPP score compared to the MPH only group: did not show significant differences

## COC(=O)C(c1ccccc1)C1CCCCN1 (stereo not drawn) [MPH, Methylphenidate]
[1]; MPH 0.75 mg/kg
  locomotor activity compared to saline: no significant effect
[1]; MPH 7.5 mg/kg
  locomotor activity compared to saline: significantly increased locomotor activity; also recorded: increased locomotor activity significantly
[4]; [11]
  time after MPH administration at which increases in frontal cortical dopamine levels occur: ~60 min
[4]; low doses of MPH (literature)
  effect on neurotransmitter levels: selectively affect neurotransmitter levels in the frontal cortex
[5]
  studies reporting subjective responses to oral MPH: 18 (72%) of 25 studies
[6]; 7.5 mg/kg MPH to 25-day old mice for 5 days, expected
  MOPR activity: MOPR upregulation
[6]; MPH 0.75 mg/kg i.p.
  MOPR activity (DAMGO-stimulated [35S]GTPγS binding) compared to saline: did not produce significant enhancements
[6]; MPH 7.5 mg/kg i.p.
  MOPR activity (DAMGO-stimulated [35S]GTPγS binding) compared to saline: significantly greater; also recorded: activate MOPR; also recorded: upregulation of striatal MOPR; also recorded: upregulate MOPR activity; also recorded: significantly higher MOPR activity
[6]; [12]
  MOPR activity, high dose MPH group vs cocaine group: no significant difference
[2]; MPH 0.75 mg/kg (low, therapeutic dose) i.p.
  place preference: time spent in the drug-paired chamber, test vs pre-conditioning sessions: did not; also recorded: neither induce place preference; also recorded: do not; also recorded: no statistically significant difference
[2]; MPH 7.5 mg/kg (high, supra-therapeutic dose) i.p., alone
  place preference: time spent in the drug-paired chamber, test vs pre-conditioning sessions: showed significant place preference; also recorded: induced CPP; also recorded: produce CPP; also recorded: induce place preference; also recorded: produce place preference; also recorded: spent significantly longer period of time in the drug-paired chamber; also recorded: produced significant increase
[2]; MPH 7.5 mg/kg i.p.
  CPP score compared to the saline and low dose MPH groups: significantly higher CPP scores
[2]; [12]
  CPP score, high dose MPH group vs cocaine group: no statistically significant difference
[7]; 0.75 mg/kg MPH, adult mice (ref. 19)
  serum and brain concentrations of d-methylphenidate: equivalent to its serum and brain (estimated) concentrations in ADHD patients taking therapeutic doses of MPH
[7]; [11]
  clinically relevant serum levels of D-MPH: 6 to 10 ng/mL
  time brain levels remain high: ~30 min
  time to reach clinically relevant serum levels of D-MPH: ≤ 15 min
[8]
  accuracy in 5-CSRT assay: increased accuracy

## CC(N)Cc1ccccc1 (stereo not drawn) [Amphetamine]
[9]
  KOPR signaling in the nucleus accumbens: modulates KOPR signaling in the nucleus accumbens in a region-specific manner
